The assay has as its target T1, Chi3l1 (chitinase 3-like 1, YKL-40) (Mus musculus, UniProt Q61362).
T1 construct: recombinant mouse Chi3l1 (rChi3l1), labelled with His-Tag Labeling Kit RED-tris-NTA
The experiment in a line: microscale thermophoresis (MST); supported by biotin-glucose pull-down competed by unlabeled glucose. In kind it is binding. A general note: In MST a laser heats a spot of the sample, and binding alters the fluorescence response.

Usually Kd stands for the free concentration of one partner at which half of the binding sites on the other are occupied at equilibrium, for simple one-to-one binding. Low values mean higher affinity, high ones lower affinity.

T1 sequence (Q61362 30-389): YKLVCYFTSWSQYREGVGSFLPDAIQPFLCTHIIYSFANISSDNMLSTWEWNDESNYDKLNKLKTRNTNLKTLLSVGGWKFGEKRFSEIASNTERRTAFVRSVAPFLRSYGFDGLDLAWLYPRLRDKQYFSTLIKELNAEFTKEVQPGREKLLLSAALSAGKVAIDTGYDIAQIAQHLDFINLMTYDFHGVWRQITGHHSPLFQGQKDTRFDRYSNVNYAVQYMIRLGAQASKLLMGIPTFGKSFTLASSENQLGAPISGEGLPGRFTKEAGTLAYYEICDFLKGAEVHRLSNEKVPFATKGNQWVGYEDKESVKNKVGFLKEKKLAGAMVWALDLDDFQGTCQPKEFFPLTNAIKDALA

The compound `OC[C@H]1OC(O)[C@H](O)[C@@H](O)[C@@H]1O` (stereo partly shown) [glucose] showed a dissociation constant (Kd) of 4.95 mM.
